Measurements taken from article PMC8744131, “Dimensionless parameter predicts bacterial prodrug success” (Molecular Systems Biology, 2022).
In brackets after ≈: the same amount, converted by molar mass. Where two headings read alike, the source gives them in different places. Where no end group is shown, it is not given here. The star is where a group is joined. 5FAM = O=C1OC2(c3ccc(O)cc3Oc3cc(O)ccc32)c2ccc(C(=O)*)cc21; Dabcyl = CN(C)c1ccc(N=Nc2ccc(C(=O)*)cc2)cc1

Experiments:
DH5α E. coli [1] = assay: Bacteria viability assay (CFU), AMP system; format: cell-based
Procedure: (§1) Positive control for AMP toxicity (black bar).
Figure EV4 Parent drug control for all conditions in AMP prodrug system Parent drug (R9, polyarginine) controls for conditions testing different media conditions and temperatures in the AMP prodrug studies.
DH5α Escherichia coli were a gift from Todd Sulchek's BioMEMS lab at Georgia Tech. E. coli were cultured in LB broth (Lennox) at 37°C and plated on LB agar (Lennox) plates. LB broth was purchased from Millipore Sigma (Burlington, MA) and LB agar was purchased from Invitrogen (Carlsbad, CA). AMP and locked AMP were custom ordered from Genscript (Piscataway, NJ). See Table EV1 for more information. Bacteria were grown to a concentration of 10^9 CFU/ml before being used for experiments. Concentration was estimated by measuring the OD600 of the bacterial suspension, and assuming an OD600 of 1.000 corresponds to a concentration of 8 × 10^8 CFU/ml. Bacterial cell viability was measured by making eight 10‐fold serial dilutions, and plating three 10‐µl spots on an LB agar plate. Plates were incubated overnight at 37°C, and CFUs were counted. Untreated bacteria CFU counts served as control for 0% cytotoxicity, and bacteria + IPA (or 0 countable CFUs) served as control for 100% cytotoxicity.

UTI89 E. coli = assay: Bacterial toxicity of TMP and TM-TMP (CFU / MIC); format: cell-based
From the text: Just as with our earlier experiments, we measured (i) the number of bacteria and (ii) the number of drug molecules consumed in each killing reaction to calculate the parameters a and b, respectively (Fig EV8).

OmpT [2] = molecular target: OmpT (Escherichia coli, UniProt P09169); conditions: Fig EV5B, text printed in picture
From the text: (§2) This allowed us to more rigorously test the model by predicting bacteria‐prodrug response curves across nine distinct combinations of kcat and r values before performing the physical experiments. We experimentally controlled the nine distinct combinations of kcat and r values by altering the ambient temperature and concentration of broth (conditions labeled A1–3, B1–3, and C1–3; Table EV3). We affected the enzymatic activation rate of the prodrug, kcat, by changing temperature as described by the Arrhenius equation (Calvert, [1990]). […] To experimentally validate this, we incubated bacteria with AMP prodrug under the defined nine conditions and quantified the number of living bacteria longitudinally over the course of a 24‐h treatment window.

DH5α E. coli [3] = assay: Bacteria viability assay, AMP prodrugs with TEV protease or inhibitor; format: cell-based; conditions: CFU, n = 3–4
OmpT [4] = conditions: micromolar concentrations; ref Brannon et al, 2015; cited from earlier work
From the text: To validate the predictions of our mathematical model with an in vitro bacteria‐activated prodrug system, we synthesized a protease‐activated AMP prodrug. This AMP prodrug comprised cationic (polyarginine, R9) antimicrobial peptides (AMP) in charge complexation with anionic peptide locks (polyglutamic acid, E13) by a linker peptide (RRS|RRV) specific for the ubiquitous bacterial protease OmpT (Olson et al, [2009]; preprint: Holt et al, [2019]). Upon proteolytic cleavage of the linker, the hairpin prodrug is unlocked to release free AMP (Fig 3A). To measure OmpT activity, we synthesized an acti ...

[5] = test system: OmpT expressed on the surface of E. coli K‐12 BW25113; assay: Cleavage assay with OmpT expressed on the surface of E. coli; format: biochemical; conditions: 37°C, n = 3
From the text: To measure OmpT activity, we synthesized an activity probe (McCarter et al, [2004]; Kwong et al, [2013], [2021]; Holt et al, [2017], [2018]; Mac et al, [2019]; Zhuang et al, [2019]) with free linker peptides containing a fluorophore‐quencher pair, which produced an increase in fluorescence upon proteolytic cleavage.
as §1

OmpT on DH5α E. coli = OmpT on DH5α E. coli (Escherichia coli, UniProt P09169)
From the text: as §2
Figure EV2 Calculating bacterial growth rate and enzymatic activity in the AMP prodrug system • Schematic of the simplified model that only includes bacteria and a substrate probe, which was used to quantify r and kcat from bacterial cleavage assays. • Bacterial cleavage assays (blue line) where we are measuring the increase in fluorescence from the cleavage of the fluor‐quencher substrate probe over time. Bacteria and fluor‐quencher probe are incubated together for 12 h. Then, we fit a simplified model to the results, which is plotted as the dashed line. Each panel is labeled with the environmental condition as described in Table EV3 and correlating with Fig 4.
Table EV3. Additional information for experimental conditions. This information includes incubation temperature (second column from left), the concentration of LB broth by volume (third column from left), growth rate, r (fourth column from left), enzyme catalytic turnover, kcat (fifth column from left), and the bacterial advantage heuristic, BAH (sixth column from left).

DH5α E. coli [6] = assay: Short-time drug dosing experiment with free AMP for a and b; format: cell-based; conditions: DH5a + AMP prodrug model; from free AMP dosing, t < 10 min, n = 3
Procedure: Experiment was taken at a short time interval (t < 10 min) so we could calculate the number of bacteria and drug copies consumed in each killing reaction.

DH5α E. coli [7] = assay: Bacterial Advantage Heuristic (BAH) / model, AMP prodrug system
From the text: as §2

OmpT on DH5α E. coli, sequence (P09169 21-317): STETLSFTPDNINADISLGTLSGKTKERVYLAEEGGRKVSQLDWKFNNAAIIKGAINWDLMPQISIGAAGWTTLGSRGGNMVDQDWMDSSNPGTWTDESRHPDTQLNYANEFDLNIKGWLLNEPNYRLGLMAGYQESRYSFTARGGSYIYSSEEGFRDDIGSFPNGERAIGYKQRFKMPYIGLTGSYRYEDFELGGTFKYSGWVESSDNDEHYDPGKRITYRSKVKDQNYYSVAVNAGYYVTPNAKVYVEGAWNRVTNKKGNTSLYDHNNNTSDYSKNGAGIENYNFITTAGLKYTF
OmpT (Escherichia coli, UniProt P09169), sequence (P09169 21-317): as above

Q: For polyarginine [free AMP], which “reduction in colonies vs untreated controls” value (DH5α E. coli [1]; free AMP, CFU, n = 3–4 biological replicates, one-way ANOVA) is on record?
A: significant reduction in colonies compared to untreated controls

Q: What about the treatment success (DH5α E. coli [1]; nine conditions A1–C3 (30/37 °C, 0–66% LB broth), 24 h, serial CFU, n = 3) of the same molecule?
A: successfully treated bacteria in all nine conditions tested

Q: Which “change in number of bacteria killed on adding GSH” value (UTI89 E. coli; 5 mM GSH vs no GSH, surviving CFU) does the source give for `COc1cc(Cc2cnc(N)nc2N)cc(OC)c1OC` [TMP, trimethoprim] here?
A: did not significantly change

Q: What about the “efficiency at killing bacteria vs TM-TMP” value (UTI89 E. coli; 37°C, 75% broth, n = 3) of the same molecule?
A: significantly more efficient at killing UTI89 bacteria

Q: And the MIC (UTI89 E. coli; Escherichia coli, 37°C, 75% broth, n = 3, read-out: minimum inhibitory concentration (MIC))?
A: 3.2 µM (≈ 0.929 µg/mL)

Q: For “EEEEEEEEENLYFQGRRRRRRRR [Locked AMP (linker 3), AMP prodrug with linker ENLYFQG, specific to TEV protease]”, which “catalytic efficiency kcat/Km (rank in words)” value (OmpT [2]) is on record?
A: Lowest

Q: What about the “reduction of bacteria load” value (DH5α E. coli [3]; TEV-specific locked AMP alone (no TEV protease)) of the same molecule?
A: did not significantly reduce bacteria load

Q: What about the elimination of bacteria (DH5α E. coli [3]; TEV-specific locked AMP plus TEV protease) of the same molecule?
A: elimination of bacteria

Q: Which results are given for aprotinin [reference compound]?
A: reduction of bacteria load (DH5α E. coli [3]; control with OmpT inhibitor aprotinin plus OmpT-specific locked AMP): did not significantly reduce bacteria load; inhibition of OmpT (OmpT [4]): inhibits OmpT when present in micromolar concentrations

Q: Which “linker specificity: cleavage activity by parent strain vs OmpT knockout” value ([5]; OmpT-positive E. coli K‐12 BW25113 vs OmpT genetic knockout, fluorescence 485/528 nm, 60–120 min) does the source give for “Dabcyl-RRSRRVK(5FAM) [OmpT Probe, free linker peptide RRSRRV with fluorophore-quencher pair]” here?
A: only observed activity in samples incubated with the parent strain (i.e., OmpT‐positive)

Q: And the “cleavage activity in presence of aprotinin” value ([5]; recombinant OmpT or E. coli surface OmpT with aprotinin, fluorescence)?
A: no activity in samples containing the serine protease inhibitor, Aprotinin

Q: Which kcat (OmpT on DH5α E. coli; condition A1: 37 °C, 0% LB broth, r 0.1 h^-1) does the source give for “EEEEEEEEEEEEERRSRRVRRRRRRRRR [Locked AMP (linker 1), R9 antimicrobial peptide locked by E13 via OmpT-cleavable linker RRSRRV; default locked AMP]” here?
A: 25 h^-1 x 10^10

Q: What about the kcat (OmpT on DH5α E. coli; condition A2: 30 °C, 2% LB broth, r 0.14 h^-1) of the same molecule?
A: 13.6 h^-1 x 10^10

Q: What about the kcat (OmpT on DH5α E. coli; condition A3: 37 °C, 2% LB broth, r 0.3 h^-1) of the same molecule?
A: 22 h^-1 x 10^10

Q: What about the kcat (OmpT on DH5α E. coli; condition B1: 37 °C, 4% LB broth, r 0.5 h^-1) of the same molecule?
A: 15 h^-1 x 10^10

Q: And the kcat (OmpT on DH5α E. coli; condition B2: 37 °C, 6% LB broth, r 0.85 h^-1)?
A: 13.6 h^-1 x 10^10

Q: What about the kcat (OmpT on DH5α E. coli; condition B3: 37 °C, 20% LB broth, r 2.2 h^-1) of the same molecule?
A: 1 h^-1 x 10^10

Q: What about the kcat (OmpT on DH5α E. coli; condition C1: 30 °C, 20% LB broth, r 1.4 h^-1) of the same molecule?
A: 5.2 h^-1 x 10^10

Q: What about the kcat (OmpT on DH5α E. coli; condition C2: 30 °C, 66% LB broth, r 1.6 h^-1) of the same molecule?
A: 4 h^-1 x 10^10

Q: And the kcat (OmpT on DH5α E. coli; condition C3: 37 °C, 66% LB broth, r 3 h^-1)?
A: 6 h^-1 x 10^10

Q: What about the “a, bacterial death rate constant” value (DH5α E. coli [6]) of the same molecule?
A: 1e-13 µL/h

Q: And the “b, drug decay rate constant” value (DH5α E. coli [6])?
A: 0.02 µL/h

Q: What about the “ratio of a to b” value (DH5α E. coli [7]) of the same molecule?
A: 0.5 × 10^−11

Q: What about the “catalytic efficiency kcat/Km (rank in words)” value (OmpT [2]) of the same molecule?
A: High

Q: What about the elimination of bacteria (DH5α E. coli [3]; OmpT-specific locked AMP alone, natively expressed OmpT) of the same molecule?
A: elimination of bacteria
